Assays:
[1] = target: E3 ubiquitin-protein ligase CBL-B (Homo sapiens, UniProt Q13191); test: Inhibition of N-terminal Avi-tagged human CBL-B (36 to 427 residues) incubated with 60 nM Src kinase for 1.5 hrs followed by incubation with fluorescently labeled UbcH5B-Ub for 1 hr and measured by TR-FRET assay; type: single protein
[2] = Induction of anti-CD3/CD28 antibodies-stimulated human T cell activation at 4 uM assessed fold increase in IL-2 secretion measured by ELISA assay; type: functional, T cell line
[3] = Induction of anti-CD3/CD28 antibodies-stimulated human T cell activation at 1 uM assessed fold increase in IL-2 secretion measured by ELISA assay; type: functional, T cell line
[4] = Induction of anti-CD3/CD28 antibodies-stimulated human T cell activation at 0.3 uM assessed fold increase in IL-2 secretion measured by ELISA assay; type: functional, T cell line
[5] = Induction of anti-CD3 antibodies-stimulated human T cell activation at 8 uM assessed fold increase in IL-2 secretion measured by ELISA assay; type: functional, T cell line; also: reference of the scale not given here
[6] = Induction of anti-CD3 antibodies-stimulated human T cell activation at 1 uM assessed fold increase in IL-2 secretion measured by ELISA assay; type: functional, T cell line; also: reference of the scale not given here
[7] = Induction of anti-CD3/CD28 antibodies-stimulated human T cell activation at 4 uM assessed fold increase in CD25 expression measured by ELISA assay; type: functional, T cell line
[8] = Induction of anti-CD3/CD28 antibodies-stimulated human T cell activation at 1 uM assessed fold increase in CD25 expression measured by ELISA assay; type: functional, T cell line
[9] = Induction of anti-CD3/CD28 antibodies-stimulated human T cell activation at 0.3 uM assessed fold increase in CD25 expression measured by ELISA assay; type: functional, T cell line
[10] = Induction of anti-CD3 antibodies-stimulated human T cell activation at 8 uM assessed fold increase in CD25 expression measured by ELISA assay; type: functional, T cell line; also: reference of the scale not given here
[11] = Induction of anti-CD3 antibodies-stimulated human T cell activation at 1 uM assessed fold increase in CD25 expression measured by ELISA assay; type: functional, T cell line; also: reference of the scale not given here

Chain of E3 ubiquitin-protein ligase CBL-B (Q13191 whole entry, the tested form may be a part): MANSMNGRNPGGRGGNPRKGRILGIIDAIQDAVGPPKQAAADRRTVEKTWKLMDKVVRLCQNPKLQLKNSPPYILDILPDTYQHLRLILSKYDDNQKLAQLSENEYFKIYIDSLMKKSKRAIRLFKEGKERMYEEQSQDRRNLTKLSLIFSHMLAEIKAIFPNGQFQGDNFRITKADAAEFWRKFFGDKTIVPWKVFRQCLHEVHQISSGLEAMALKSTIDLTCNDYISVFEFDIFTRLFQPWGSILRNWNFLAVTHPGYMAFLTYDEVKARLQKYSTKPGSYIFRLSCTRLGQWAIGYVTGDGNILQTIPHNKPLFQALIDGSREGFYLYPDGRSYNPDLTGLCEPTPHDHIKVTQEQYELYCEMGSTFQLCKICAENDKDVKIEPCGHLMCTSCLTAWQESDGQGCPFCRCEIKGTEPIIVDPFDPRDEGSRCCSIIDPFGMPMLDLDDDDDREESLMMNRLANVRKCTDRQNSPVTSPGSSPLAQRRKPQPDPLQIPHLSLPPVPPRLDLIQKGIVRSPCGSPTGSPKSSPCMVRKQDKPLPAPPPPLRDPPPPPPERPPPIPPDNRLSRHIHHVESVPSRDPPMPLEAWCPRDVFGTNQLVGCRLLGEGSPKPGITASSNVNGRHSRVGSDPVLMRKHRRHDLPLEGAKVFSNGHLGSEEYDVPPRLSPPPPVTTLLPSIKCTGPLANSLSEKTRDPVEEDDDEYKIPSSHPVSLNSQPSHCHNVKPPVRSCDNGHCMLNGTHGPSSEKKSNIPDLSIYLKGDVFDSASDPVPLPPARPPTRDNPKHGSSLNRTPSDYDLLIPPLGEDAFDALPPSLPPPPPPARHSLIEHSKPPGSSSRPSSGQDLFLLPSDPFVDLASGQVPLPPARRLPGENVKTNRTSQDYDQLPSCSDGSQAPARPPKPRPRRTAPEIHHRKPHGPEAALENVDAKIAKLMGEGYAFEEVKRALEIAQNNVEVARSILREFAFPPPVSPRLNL

SMILES	IC50 [1] [nM]	fold change (FC) [2]	fold change (FC) [3]	fold change (FC) [4]	fold change (FC) [5]	fold change (FC) [6]	fold change (FC) [7]	fold change (FC) [8]	fold change (FC) [9]	fold change (FC) [10]	fold change (FC) [11]
C[C@H](Cc1nncn1C)c1cccc(N2Cc3c(cc([C@@H](C)N4CC(O)C4)cc3C(F)(F)F)C2=O)c1	< 100	>=7.5	5	2.51	>=0.201	>=0.201	1.31	1.31	1.01	>=1.001	0.801
C[C@H](Cc1nocc1C(F)(F)F)c1cccc(N2Cc3c(cc(C(=O)N4CC[C@H](F)C4)cc3C(F)(F)F)C2=O)c1	≤ 300	2.51	1.01	1.01	0.101	<=0.05	1.31	1.01	1.01	>=1.001	0.601
C[C@H](Sc1nncn1C)c1cccc(NC(=O)c2ccc(C#N)c(C3CC3)n2)c1	< 100	5	2.51	1.01	0.101	<=0.05	1.31	1.31	1.01	>=1.001	0.601
Cn1cnnc1CC1(c2cccc(NC(=O)c3cc(C4CC4)nc(C4CC4)n3)c2)COC1	< 100	>=7.5	>=7.5	2.51	>=0.201	0.151	1.31	1.01	1.01	>=1.001	>=1.001
C[C@H](Cc1nncn1C)c1cccc(NC(=O)c2cc(O[C@@H]3CC[C@@H](O)C3)ccn2)c1 (relative stereo)	< 100	5	2.51	2.51	0.101	0.051	1.31	1.01	1.01	>=1.001	0.801
C[C@H](Sc1nncn1C)c1cccc(NC(=O)c2ccc(CO)c(C3CC3)n2)c1	< 100	5	2.51	1.01	0.101	<=0.05	1.31	1.01	1.01	0.801	<=0.6
CN1CC2CCC(C1)N2c1cc2c(c(C(F)(F)F)c1)CN(c1cccc([C@@](C)(F)C(F)(F)c3nncn3C)c1)C2=O	< 100	>=7.5	>=7.5	5	>=0.201	>=0.201	1.51	1.51	1.31	>=1.001	>=1.001
C[C@H](Sc1nncn1C)c1cccc(NC(=O)c2cc(C3CC3)cc(C(F)(F)F)n2)c1	< 100	2.51	1.01	1.01	0.101	<=0.05	1.01	1.01	1.01	>=1.001	0.801
CC(c1cc2c(c(C(F)(F)F)c1)CN(c1cccc([C@H]3C[C@H]3c3nncn3C)c1)C2=O)N1CC[C@H](F)C1 (stereo not given in full)	< 100	>=7.5	>=7.5	2.51	>=0.201	>=0.201	1.51	1.51	1.31	>=1.001	>=1.001
C[C@H](Cc1nncn1C)c1cccc(N2Cc3c(cc(C4CC4)cc3C(F)(F)F)C2=O)c1	< 100	2.51	1.01	1.01	>=0.201	>=0.201	1.31	1.01	1.01	>=1.001	0.801
C[C@@H](c1cccc(N2Cc3c(cccc3C(F)(F)F)C2=O)c1)[C@@H](F)c1nncn1C (single isomer, unassigned)	< 100	2.51	1.01	1.01	>=0.201	0.051	1.01	1.01	1.01	>=1.001	0.601
Cc1cc(C(=O)Nc2cccc(C3(Cc4nncn4C)COC3)c2)nc(C2CCC2)n1	< 100	>=7.5	5	1.01	>=0.201	0.151	1.31	1.01	1.01	>=1.001	0.801
C[C@H](Cc1nncn1C)c1cccc(NC(=O)c2cccc(C(C)(C)C)n2)c1	< 100	2.51	2.51	1.01	>=0.201	0.051	1.01	1.01	1.01	>=1.001	0.801
C[C@H](Cc1nncn1C)c1cccc(N2Cc3c(cc(-c4ccn[nH]4)cc3C(F)(F)F)C2=O)c1	< 100	>=7.5	5	2.51	>=0.201	>=0.201	1.31	1.31	1.01	>=1.001	>=1.001
CC(=O)N1CCN(c2ccc3cnc(C(=O)Nc4cccc([C@H](C)Cc5nncn5C)c4)cc3c2)CC1.O=C(O)C(F)(F)F	< 100	>=7.5	5	2.51	>=0.201	>=0.201	1.51	1.01	1.01	>=1.001	0.601

Source: ChEMBL document CHEMBL5050844 (2019)
